# According to patent US6297245A, “Cisplatin and folic acid administered to treat breast cancer” (Unitech Pharmaceuticals, priority 1999, dated 2001):
# How the values were obtained:
# Assay type in all cases: cell-based
# [1] = tested on: human breast cancer cells (MCF-7); assay: Growth inhibition of human breast cancer cells (MCF-7)
# Text: The results shown the extent of inhibition of cell growth compared to controls expressed in percent inhibition.
# [2] = tested on: normal human mammary cells (NHMC); assay: Growth inhibition of normal human mammary cells (NHMC) grown in RPMI-10; conditions: for Percent Growth Inhibition in NHMC Cells Grown in RPMI-10: RPMI-1640 with 10% fetal calf serum
# Text: (§1) The results shown the extent of inhibition of cell growth compared to controls expressed in percent inhibition. The results are shown as follows:
# RPMI-10 refers to standard RPMI-1640 medium with 10% fetal calf serum added.
# [3] = tested on: normal human mammary cells (NHMC); assay: Growth inhibition of normal human mammary cells (NHMC) grown at low calcium concentration (40 μM); conditions: calcium 40 μM
# Procedure: as §1
# Table 3 Percent Growth Inhibition in NHMC Cells Grown at Low Calcium Concentration (40 μM).
compound,measurement,setting,value
"N.N.[Cl][Pt][Cl] [cisplatin, cis-diamminedichloroplatinum]",Percent Growth Inhibition in MCF-7 Cells,[1]; 5 μL,25%
same,Percent Growth Inhibition in MCF-7 Cells,[1]; 10 μL,49%
same,Percent Growth Inhibition in MCF-7 Cells,[1]; 25 μL,92%
same,"inhibitions on MCF-7, comparison of cisplatin and #801C",[1]; in words,essentially the same
same,Percent Growth Inhibition in NHMC Cells Grown in RPMI-10,[2]; 1/100,88%
same,Percent Growth Inhibition in NHMC Cells Grown in RPMI-10,[2]; 1/200,46%
same,Percent Growth Inhibition in NHMC Cells Grown in RPMI-10,[2]; 1/400,0%
same,"inhibitions on NHMC, comparison of cisplatin and #801C","[2]; in words, RPMI-10",not significantly different
same,Percent Growth Inhibition in NHMC Cells Grown at Low Calcium Concentration (40 μM),[3]; 1/100,32%
same,Percent Growth Inhibition in NHMC Cells Grown at Low Calcium Concentration (40 μM),[3]; 1/200,31%
same,Percent Growth Inhibition in NHMC Cells Grown at Low Calcium Concentration (40 μM),[3]; 1/400,27%
